Data set [1] in a line: In vitro dissolution and aqueous solubility study in distilled water. As to the method:
The dissolution experiment was carried out in triplicate on both the diethyl tetrathiomolybdate salt and the ammonium tetrathiomolybdate salt.

How the values of data set [2] were obtained:
The in vitro dissolution and aqueous solubility behaviour at 25° C. was also investigated for the DEA-TTM salts synthesised by routes A, B and C as outlined in Example 1.5 above (Almac Sciences, Northern Ireland).

A short description of data set [3]: H2S gas detection assay (H2S gas release in PBS). The settings on record: for quantity of H2S gas released under standard conditions: PBS, pH 7.4, 37° C., incubation 1 hour, FIG. 12A. In kind it is physicochemical. The source says:
A, B and C denote the synthetic route of manufacture of DEA-TTM, with respect to FIG. 6.
If the sample is drawn in the latter part of the 10-second bin, the second or third reading may be the highest. A direct correlation ([…], straight line model, r^2=0.992; see FIG. 11) was observed on comparing the peak H2S value against the sum of the washout readings (decay) over time (area under curve, AUC). As the time to washout and the sum of values therein are directly proportional to the peak quantity of gas initially detected, it is appropriate to consider only the peak H2S gas level to determine the total amount of H2S gas release.
Initial testing of DEA-TTM salts A, B and C was carried out under standard conditions (dissolution in PBS, pH 7.4, incubation for 1 hour). […] Acidic conditions are shown to favour sulfide release.

SMILES strings stand for the structures.

Turning to `[NH4+].[NH4+].[SH-].[SH-].[S]=[Mo]=[S]` [ATTM, ammonium tetrathiomolybdate], the “solubility in distilled water” value in data set [1] was “ca. 2 mg/ml”. The dissolution time result in data set [1] (distilled water) is “over 1 hour”. Besides, the “solubility in water at 25° C.” value in data set [2] worked out at 2 mg/mL. For the same compound, the “thiol dependence of H2S release (increase, in words)” value in data set [3] (for reference) is listed as “six-fold increase”.

`CC[NH2+]CC.CC[NH2+]CC.[S]=[Mo](=[S])([S-])[S-]` [diethylamine tetrathiomolybdate]: the “quantity of H2S gas released under standard conditions” value in data set [3] (listed as salt B) is “released the least H2S gas”; in data set [3] (listed as salt C), “released the most H2S gas”.

For the origin of these results see patent US10781162B2 (UCL BUSINESS Ltd, priority 2016, dated 2020).
